One series has as its system SK-N-SH. Put plainly: Human cancer cell line growth inhibition, Neuroblast SK-N-SH. Format: cell-based. The settings on record: for GI50: Homo sapiens.
The subject of the next series is FADU. Put plainly: Human cancer cell line growth inhibition, Pharynx-sq FADU. Format: cell-based. The settings on record: for GI50: Homo sapiens, FaDu.
Series [1] has as its target T1, tubulin (Bos taurus, UniProt P81947+Q6B856). Put plainly: Inhibition of tubulin polymerization (assembly). Format: biochemical. The procedure:
(§1) Tubulin assays. The tubulin polymerizion and colchicine binding experiments were performed as described previously (See: Verdier-Pinard, P.; Lai, J -Y.; Yoo, H -D.; Yu, J.; Marquez, B.; Nagle, D. G.; Nambu, M.; White, J. D.; Falck, J. R; Gerwick, W. H.; Day, B. W.; Hamel, E. Mol. Pharmacol. 1998, 53, 62-76). However, in the polymerization assays Beckman DU7400/7500 spectrophotometers equipped with “high performance” temperature controllers were used. […] Temperature changes were, however, more rapid, with the jump from the lower temperature to 30EC taking about 20 sec and the reverse jump about 100 sec.

The subject of the next series is SF-295. Put plainly: Human cancer cell line growth inhibition, CNS SF-295. As to conditions: for GI50: Homo sapiens. Format: cell-based.
The next series relates to DU-145. Nature of the series: Human cancer cell line growth inhibition, Prostate DU-145. Format: cell-based. As to conditions: for GI50: Homo sapiens.
The next series has as its system BXPC-3. Put plainly: Human cancer cell line growth inhibition, Pancreas-a BXPC-3. Type of series: cell-based. The settings on record: for GI50: Homo sapiens.
The test system of the next series is Streptococcus pneumoniae. Put plainly: Disk susceptibility testing. Format: cell-based. From the text:
(§2) Antimicrobial susceptibility testing. […] Eur. J. Med. Chem. 1998, 33, 71-77).

The next series concerns KM20L2. Put plainly: Human cancer cell line growth inhibition, Colon KM20L2. Type of series: cell-based. The settings on record: for GI50: Homo sapiens, KM-20L2.
Another series deals with A498. Nature of the series: Human cancer cell line growth inhibition, Renal A498. Type of series: cell-based. As to conditions: for GI50: Homo sapiens.
A further series relates to SW1736. Nature of the series: Human cancer cell line growth inhibition, Thyroid ca SW1736. Format: cell-based. The settings on record: for GI50: Homo sapiens, SW-1736.
The next series relates to OVCAR-3. Nature of the series: Human cancer cell line growth inhibition, Ovarian OVCAR-3. Format: cell-based. The settings on record: for GI50: Homo sapiens.
Another series deals with NCI-H460. Nature of the series: Human cancer cell line growth inhibition, Lung-NSC NCI-H460. Type of series: cell-based. The settings on record: for GI50: Homo sapiens.
A further series deals with Neisseria gonorrhoeae. Put plainly: Disk susceptibility testing. Format: cell-based.
Description: as §2

The target of series [2] is T1, tubulin. Nature of the series: Inhibition of [3H]colchicine binding to tubulin. The procedure: as §1
Another series has as its system cancer cell growth. As to conditions: cited from earlier work; for activity as cancer cell growth inhibitors: initial finding.
The next series concerns Cryptococcus neoformans.
Description: as §2

Another series relates to Candida albicans.
Description: as §2

Series [3] relates to Stenotrophomonas maltophilia.
Description: as §2

For a further series, the system named is solid tumors. The settings on record: cited from earlier work.
In series [4] the test system is the ten bacteria and fungi tested. Nature of the series: Disk susceptibility testing, whole panel. The settings on record: at 100 μg/disk. Format: cell-based.
Description: as §2

Another series can be described thus: Aqueous solubility. Format: physicochemical.
For a further series, the system named is colchicine binding. The settings on record: at equal concentrations; cited from earlier work.
The next series has as its system Staphylococcus aureus. Nature of the series: Disk susceptibility testing. Format: cell-based.
Description: as §2

[5] abbreviates: Table II, tubulin concentration 10 μM, read-out: Inhibition of tubulin Polymerization IC50 ± SD.
The mark [6] stands for this setting: Table IV and text, read-out: Inhibition of Tubulin Assembly IC50 ± SD.
Setting [7] is: read-out: % Inhibition Colchicine binding ± SD.

Here are results for twelve compounds from US20040122083A1, “Antitubulin assembly and cell growth inhibitor denominated "dioxostatin"” (priority 2003, published 2004).

Converted amounts (≈) assume the structure as drawn. Where two headings read alike, the source gives them in different places.

T1 sequence (Q6B856 whole entry): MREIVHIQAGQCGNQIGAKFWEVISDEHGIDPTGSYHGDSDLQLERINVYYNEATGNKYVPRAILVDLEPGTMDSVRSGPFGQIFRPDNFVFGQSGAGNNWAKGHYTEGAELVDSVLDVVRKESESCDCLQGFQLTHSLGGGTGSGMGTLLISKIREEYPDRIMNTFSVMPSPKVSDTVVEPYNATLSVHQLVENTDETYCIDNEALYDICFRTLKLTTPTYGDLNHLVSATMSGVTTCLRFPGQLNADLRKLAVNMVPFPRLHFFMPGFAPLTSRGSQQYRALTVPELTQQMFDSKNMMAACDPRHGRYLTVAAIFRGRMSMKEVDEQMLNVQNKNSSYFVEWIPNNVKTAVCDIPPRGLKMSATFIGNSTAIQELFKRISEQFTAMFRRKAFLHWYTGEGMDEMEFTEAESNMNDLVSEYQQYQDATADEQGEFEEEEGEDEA
T1 sequence (P81947 whole entry): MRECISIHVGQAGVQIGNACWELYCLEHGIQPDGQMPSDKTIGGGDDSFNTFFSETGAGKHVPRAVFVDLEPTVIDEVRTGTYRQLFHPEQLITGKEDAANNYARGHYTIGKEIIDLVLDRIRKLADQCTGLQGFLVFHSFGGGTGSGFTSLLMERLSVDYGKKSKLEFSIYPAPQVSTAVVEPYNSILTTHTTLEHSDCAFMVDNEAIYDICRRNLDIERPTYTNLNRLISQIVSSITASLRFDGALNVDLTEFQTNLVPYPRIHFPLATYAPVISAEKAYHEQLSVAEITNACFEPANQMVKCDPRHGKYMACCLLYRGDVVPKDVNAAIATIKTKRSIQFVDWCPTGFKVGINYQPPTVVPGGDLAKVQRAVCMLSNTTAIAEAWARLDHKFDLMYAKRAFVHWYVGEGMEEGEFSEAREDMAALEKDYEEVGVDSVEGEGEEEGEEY

Regarding `COc1ccc([C@H](O)[C@@H](O)c2cc(OC)c(OC)c(OC)c2)cc1O` [(S,S)-4a], the “Neuroblast SK-N-SH GI50” value with SK-N-SH amounted to 0.28 µg/mL. Besides, the “Pharynx-sq FADU GI50” value in the series on FADU is 0.60 µg/mL. Besides, the IC50 at tubulin [1] (setting [5]) turned out to be 14 ± 2 µM. Also, the “CNS SF-295 GI50” value in the series on SF-295 stood at 0.52 µg/mL. Besides, in the series with DU-145, the “Prostate DU-145 GI50” value was 2.1 µg/mL. The “Pancreas-a BXPC-3 GI50” value in the series with BXPC-3 stood at 3.9 µg/mL. Moreover, in the series with Streptococcus pneumoniae, the “Minimum inhibitory Concentration” value is given as 25-50 μg/disk. In addition, the “Colon KM20L2 GI50” value in the series with KM20L2 is 0.52 µg/mL. Further, the “Renal A498 GI50” value in the series on A498 came to 0.91 µg/mL. Moreover, the “Thyroid ca SW1736 GI50” value in the series on SW1736 came out at 1.8 µg/mL. For the same compound, the “Ovarian OVCAR-3 GI50” value with OVCAR-3 was found to be 0.38 µg/mL. In the series on NCI-H460, the “Lung-NSC NCI-H460 GI50” value stood at 2.5 µg/mL.

As for `COc1ccc([C@H](O)[C@@H](O)c2cc(OC)c(OC)c(OC)c2)c(O)c1O` [(S,S)-4b], the melting point was 64 to 66 °C. This compound yielded a GI50 in the series on SK-N-SH of 3.8 µg/mL (≈ 10.4 µM). Moreover, the GI50 with FADU is above 10 µg/mL. Further, in the series with SF-295, halving of growth (GI50) required 2.9 µg/mL (≈ 7.92 µM). In the series on DU-145, this compound gave a GI50 above 10 µg/mL. For the same compound, in the series with BXPC-3, the GI50 was above 10 µg/mL. Also, the “Minimum inhibitory Concentration” value in the series with Neisseria gonorrhoeae was 25-50 μg/disk. This compound gave a GI50 in the series on KM20L2 above 10 µg/mL. The same compound yielded a GI50 with A498 above 10 µg/mL. In the series on SW1736, the GI50 was above 10 µg/mL. The compound further yielded a GI50 in the series with OVCAR-3 above 10 µg/mL. This compound also showed a GI50 with NCI-H460 above 10 µg/mL.

With `COc1ccc([C@@H](O)[C@H](O)c2cc(OC)c(OC)c(OC)c2)cc1O` [(R,R)-3a], the “Neuroblast SK-N-SH GI50” value in the series on SK-N-SH was 1.5 µg/mL. Further, the “Pharynx-sq FADU GI50” value in the series with FADU amounted to 2.1 µg/mL. At tubulin [1] (setting [5]), the IC50 is above 40 µM. Also, the “CNS SF-295 GI50” value with SF-295 is 5.7 µg/mL. Moreover, the “Prostate DU-145 GI50” value in the series with DU-145 is 3.5 µg/mL. Further, in the series on BXPC-3, the “Pancreas-a BXPC-3 GI50” value was above 10 µg/mL. Further, in the series with Streptococcus pneumoniae, the “Minimum inhibitory Concentration” value is on record as 50-100 μg/disk. Also, the “Colon KM20L2 GI50” value in the series with KM20L2 was determined as 8.2 µg/mL. Moreover, the “Renal A498 GI50” value in the series on A498 was above 10 µg/mL. Besides, in the series on SW1736, the “Thyroid ca SW1736 GI50” value amounted to 6.1 µg/mL. Further, the “Ovarian OVCAR-3 GI50” value with OVCAR-3 came to 4.5 µg/mL. For the same compound, in the series with NCI-H460, the “Lung-NSC NCI-H460 GI50” value was determined as 4.4 µg/mL.

Take `COc1ccc([C@H]2OCO[C@@H]2c2cc(OC)c(OC)c(OC)c2)c(O)c1O` [(R,R)-10a, (4R,5R)-4-(2′,3′-Dihydroxy-4′-methoxyphenyl)-5-(3″,4″,5″-trimethoxyphenyl)-1,3-dioxolane]: the IC50 on tubulin [1] (setting [6]) worked out at 5.7 ± 0.8 µM. Also, the “CNS SF-295 GI50” value in the series on SF-295 came to 5.0 µg/mL. Besides, the “Prostate DU-145 GI50” value in the series with DU-145 was above 10 µg/mL. For the same compound, the “Pancreas-a BXPC-3 GI50” value in the series on BXPC-3 is above 10 µg/mL. The “% Inhibition Colchicine binding ± SD” value came to 14 ± 5% at tubulin [2] (5 μM Inhibitor) and 57 ± 0.8% at tubulin [2] (50 μM Inhibitor). Moreover, the “Colon KM20L2 GI50” value in the series with KM20L2 was above 10 µg/mL. The “Ovarian OVCAR-3 GI50” value with OVCAR-3 was above 10 µg/mL. Moreover, the “Lung-NSC NCI-H460 GI50” value with NCI-H460 is above 10 µg/mL.

On to `COc1ccc(/C=C/c2cc(OC)c(OC)c(OC)c2)c(O)c1O` [Compound 2b, E-combretastatin A-1], for which the “activity as cancer cell growth inhibitors” value with cancer cell growth is on record as “moderately active”. For the same compound, the “Minimum inhibitory Concentration” value is recorded as 6.25-12.5 μg/disk in the series with Neisseria gonorrhoeae; 50-100 μg/disk in the series with Streptococcus pneumoniae; 50-100 μg/disk in the series with Cryptococcus neoformans; 50-100 μg/disk in the series on Candida albicans; 50-100 μg/disk in series [3].

`COc1ccc(/C=C\c2cc(OC)c(OC)c(OC)c2)cc1O` [Compound 1b, combretastatin A-4]: in the series with solid tumors, the “degree of reduction, vascular shutdown within solid tumors” value is reported as 70%.

`COc1ccc([C@@H](O)[C@H](O)c2cc(OC)c(OC)c(OC)c2)c(O)c1O` [(R,R)-3b, (1R,2R)-1,2-Dihydroxy-1-(2′,3′-dihydroxy-4′-methoxyphenyl)-2-(3″,4″,5″-trimethoxyphenyl)-ethane] yielded a melting point of 64 to 66 °C. Moreover, halving of growth in the series with SK-N-SH (GI50) required 3.1 µg/mL (≈ 8.46 µM). Also, halving of growth in the series on FADU (GI50) required 4.9 µg/mL (≈ 13.4 µM). This compound also had a GI50 in the series with SF-295 of 2.6 µg/mL (≈ 7.1 µM). Also, the GI50 in the series with DU-145 was above 10 µg/mL. This compound came in with a GI50 in the series on BXPC-3 above 10 µg/mL. The “Microbe(s) inhibited, whole panel” value in [4] is “* (at 100 μg/disk, no inhibition of the ten bacteria and fungi tested)”. The compound further gave a GI50 with KM20L2 of 7 µg/mL (≈ 19.1 µM). In the series with A498, this compound yielded a GI50 above 10 µg/mL. In the series on SW1736, the GI50 was above 10 µg/mL. This compound returned a GI50 with OVCAR-3 of 7.2 µg/mL (≈ 19.7 µM). Moreover, in the series on NCI-H460, growth was halved (GI50) at 7.9 µg/mL (≈ 21.6 µM).

On to `COc1ccc(/C=C/c2cc(OC)c(OC)c(OC)c2)cc1O` [Compound 2d], for which the “activity as cancer cell growth inhibitor” value in the series on cancer cell growth (freshly prepared solutions in dimethyl sulfoxide) is “inactive”. Further, the “activity as cancer cell growth inhibitors” value in the series on cancer cell growth is reported as “moderately active”. Besides, the “Microbe(s) inhibited, whole panel” value in [4] is “* (at 100 μg/disk, no inhibition of the ten bacteria and fungi tested)”.

Regarding `COc1ccc(/C=C\c2cc(OC)c(OC)c(OC)c2)cc1OP(=O)([O-])[O-].[Na+].[Na+]` [Compound 1d], in the series on solid tumors (doses one-tenth of the maximum tolerated dose), the “vascular shutdown within metastatic tumors” value was “complete vascular shutdown”.

For `COc1cc([C@@H]2OCO[C@H]2c2ccc(OC)c(OP(=O)([O-])[O-])c2OP(=O)([O-])[O-])cc(OC)c1OC.[Na+].[Na+].[Na+].[Na+]` [(S,S)-21, Tetrasodium-(4S,5S)-4-(2′,3′-O-diphosphonate-4′-methoxyphenyl)-5-(3″,4″,5″-trimethoxyphenyl)-1,3-dioxolane], the GI50 is 3.2 µg/mL with SF-295; 2.9 µg/mL in the series with DU-145; above 10 µg/mL in the series with BXPC-3; above 10 µg/mL in the series with KM20L2; 2.6 µg/mL with OVCAR-3; 3.4 µg/mL with NCI-H460. The same compound gave a solubility in “Aqueous solubility” above 35 mg/mL.

As to `COc1ccc(/C=C\c2cc(OC)c(OC)c(OC)c2)c(O)c1O` [Compound 1a, combretastatin A-1, reference compound], in the series with colchicine binding, the “inhibition of colchicine binding” value is recorded as around 99%. In addition, at tubulin [2] (setting [7]), the inhibition at 1 µM was found to be 89 ± 3%. In addition, the inhibition at 5 µM on tubulin [2] (setting [7]) was 99.6%. For the same compound, the “Minimum inhibitory Concentration” value is 25-50 μg/disk in the series with Neisseria gonorrhoeae and 50-100 μg/disk in the series with Staphylococcus aureus. Besides, the “degree of reduction, vascular shutdown within solid tumors” value in the series with solid tumors was 50%.

On to `COc1ccc([C@@H]2OCO[C@H]2c2cc(OC)c(OC)c(OC)c2)c(O)c1O` [(S,S)-9a, (4S,5S)-4-(2′,3′-dihydroxy-4′-methoxyphenyl)-5-(3″,4″,5″-trimethoxyphenyl)-1,3-dioxolane], for which the IC50 on tubulin [1] (setting [6]) was 0.59 µM. In the series on SF-295, the “CNS SF-295 GI50” value turned out to be 2.9 µg/mL. The “Prostate DU-145 GI50” value in the series with DU-145 was determined as 3.0 µg/mL. Moreover, the “Pancreas-a BXPC-3 GI50” value with BXPC-3 was found to be 5.4 µg/mL. Further, the “% Inhibition Colchicine binding ± SD” value at tubulin [2] (1 μM Inhibitor) stood at 67 ± 6%; at tubulin [2] (5 μM Inhibitor), 91 ± 1%. The “Colon KM20L2 GI50” value with KM20L2 was found to be 5.0 µg/mL. Besides, the “Ovarian OVCAR-3 GI50” value in the series with OVCAR-3 amounted to 4.3 µg/mL. For the same compound, the “Lung-NSC NCI-H460 GI50” value in the series on NCI-H460 is above 10 µg/mL.
